# Laboratory results published in US8247170B2, “Detection of penicillin tolerance in Group B Streptococcus: single nucleotide polymorphisms in penicillin binding protein 4” (priority 2008, dated 2012).
# Tested on: GBS laboratory strains and clinical isolates
# Experiment: Microbroth (96-well) penicillin tolerance assay
# Assay type: cell-based, Group B Streptococcus
# Settings: for Penicillin Phenotypes: 48 hr penicillin, 24 hr drug free culture; for replication or viability after re-plate and additional 24-hour culture (FIG. 1): penicillin G 1× to 256×MIC90 48 hours
# Procedure: An in vitro method involving microbroth (96-well) culture was used to develop a penicillin tolerance assay. In this assay, the inventors tested three laboratory bacterial strains (i.e., GBS strains A909, NEM316, and O90R). These cells were commercially obtained from ATCC source. Bacterial cells were cultured overnight for 18 hours at 37° C. in Todd-Hewitt Broth (THB). Subcultures in THB were subsequently grown to exponential phase (OD600˜0.3) at 37° C. Cell cultures were then exposed to different concentrations of penicillin G (Sigma, St. Louis, Mo.). […] Cell cultures were dispersed. A dilution (i.e., 1 to 20) of cells was re-plated into new wells containing fresh THB with 500 U Penase (to destroy residual penicillin). Cell cultures were allowed to grow for an additional 24 hours at 37° C. Assays were repeated four (4) times and standard bar represents standard deviations.
# Using this established 96-well assay (i.e., microbroth assay), 115 clinical isolates of GBS were further tested. These were cervico-vaginal rectal clinical isolates (obtained from pregnant humans), and characterized their penicillin tolerance. The phenotype definitions (above) were used to identify the penicillin tolerant isolates.
# (I) Bacterial Strains and Culture Conditions. GBS strains A909 (serotype IA), 515 (serotype IA), NEM316 (serotype III), COHI (serotype III), 2603V/R (serotype V) and O90R (non-typable) were used in this study. E. coli Top10 cells were used for the recombination experiments. GBS was cultured in Todd Hewitt broth (THB) or Tryptic Soy 5% sheep blood (TS) media and E. coli in Luria-broth (LB) medium or agar. Antibiotics were used at the following concentrations: for GBS—penicillin G (MIC90 0.06 μg ml^−1), ampicillin (MIC90 0.12 μg ml^−1), vancomycin (MIC90 2 μg ml^−1), cefazolin (MIC90 1 μg ml^−1) and chloramphenicol (5 μg ml^−1); for E. coli—ampicillin (50 μg ml^−1) and chloramphenicol (5 μg ml^−1). Both GBS and E. coli cultures were grown at 37° C. (II) Tolerance Using the MBC:MIC Ratio Method. Three GBS laboratory strains (i.e., A909, NEM316, and O90R) were cultured overnight for 18 h at 37° C. in THB. Subcultures in THB were subsequently grown to exponential phase (OD600˜0.3; i.e. 5×10^5 cfu/ml) at 37° C. Cell cultures were then exposed to different concentrations of antibiotics (Penicillin G, Ampicillin, Cefozolin or Vancomycin). […] Cell cultures were dispersed every 18 h before OD600 was measured to determine the lowest concentration of antibiotic with 90% growth inhibition (MIC90). Antibiotic treated cells (8 μl) from each well were re-suspended into PBS (100 μl) and plated (54 μl) on TS agar plates and allowed to grow for an additional 24 h at 37° C. Cell count was performed to determine the lowest concentration of antibiotic with 90% killing of original inoculums (MBC90). (III) Penicillin Killing and Regrowth Tolerance Assay by Microbroth Dilution. Three GBS laboratory strains (i.e., A909, NEM316, and O90R) were cultured overnight for 18 h at 37° C. in THB. Subcultures in THB were subsequently grown to exponential phase (OD600˜0.3) at 37° C. Cell cultures were then exposed to different concentrations of Penicillin G (Sigma, St. Louis, Mo.). […] Cell cultures were dispersed. A 1:20 dilution of cells was re-plated into new wells containing fresh THB with 500 U Penase (to degrade residual penicillin). Cell cultures were allowed to re-grow for an additional 24 h at 37° C. before the OD600 was measured. (IV) Measuring Cell Viability by Determining ATP Concentration. GBS strains were cultured for 18 h at 37° C. in THB. These cells were inoculated into fresh THB and subsequently allowed to grow to exponential phase (OD600 0.25-0.3) at 37° C. One ml of each culture was centrifuged at 5,000×g for 4 min. The cell pellet was re-suspended in ATP-free water. Cellular ATP was extracted using trichloroacetic acid (TCA) (5%) for 2 min and subsequently neutralized with Tris-EDTA-0.1M NaOAc, pH 7.75 to 10×TCA volume. […]
smiles,measurement,setting,value
CC1(C)S[C@@H]2[C@H](NC(=O)Cc3ccccc3)C(=O)N2[C@H]1C(=O)O [Penicillin G],"% GBS Clinical Strains, Intermediate",115 clinical isolates,8%
same,"% GBS Clinical Strains, Paradoxical Effect-Penicillin Tolerance (PE-PT)",115 clinical isolates,27%
same,"% GBS Clinical Strains, Penicillin Tolerance (PT)",115 clinical isolates,16%
same,"% GBS Clinical Strains, Susceptible (S)",115 clinical isolates,49%
same,Penicillin Phenotypes,GBS laboratory strain A909,Susceptible (S)
same,Penicillin Phenotypes,GBS laboratory strain NEM316,Paradoxical Effect-Penicillin Tolerance (PE-PT)
same,Penicillin Phenotypes,GBS laboratory strain O90R,Penicillin Tolerance (PT)
same,replication or viability after re-plate and additional 24-hour culture (FIG. 1),GBS strain A909,did not replicate
same,replication or viability after re-plate and additional 24-hour culture (FIG. 1),"GBS strain NEM316, viability lost at 16× to 64×MIC90",paradoxical effect
same,replication or viability after re-plate and additional 24-hour culture (FIG. 1),GBS strain O90R,did not inhibit the replication or viability
